Consider one substance from US10350272B2, “Calcitonin analogues for treating diseases and disorders” (KeyBioscience AG, priority 2015, dated 2019).

Common to all, as to assay type: in vivo, rat
The test system of one test is obese rats. Description: 16-day treatment study in obese rats (bodyweight, food intake, fat depots, liver lipid analysis). Particulars: 16 days; for liver arachidonic acid / liver free fatty acids / liver triacylglycerols: extracted liver tissue, 7.5 μg/kg/day. As for the experimental part:
Two studies were conducted, and in both studies the obese rats used were generated as follows:
To obtain obese rats, male Sprague-Dawley rats aged 12 weeks were placed on a diet consisting of regular rodent chow and a 60 kcal % high-fat diet (no. D12495; Research Diets) for a total of 12 wk. Following the 12 weeks on high fat diet the rats were randomized into treatment groups based on weight.
The initial study was a 16-day treatment study, in which three groups were studied: Lean (same age but no high fat diet), vehicle (obese control group), and KBP-042 at 7.5 μg/kg/day. Throughout the experiment the bodyweight and food intake were monitored, and at termination liver and fat depots were collected for weighing and potential analysis of triglyceride, free fatty acids and arachidonic acid content.
As the quantification procedure contains several steps an internal standard was added to each sample extraction, which enables the results to be normalized and correcting for any loss. The internal standard was prepared as a solution containing 3.66 mg/mL C19:0 TAG (Sigma-Aldrich, product number: T4632), 2.73 mg/mL C17:0 Phospholipid (PL), 0.4 mg/mL C19:0 FFA (Sigma-Aldrich, product number: N-8263), 0.096 mg/mL C15:0 Diacylglycerol (DAG), 0.06 mg/mL d31-tagged Ceramide, 0.03 mg/mL d7-tagged Sphingosine, 1.036 mg/mL Sitostanol, 0.04 mg/mL d31-tagged Sphingomyelin and 1.596 mg/mL C15:0 Cholesterolester in Chloroform:Methanol 2:1 (v/v).
The method is based on Folch et al. At the time of extraction the samples were portioned at 500 mg individually and transferred to glass tubes, followed by the addition of 10 mL 100 μg/mL butylated hydroxytoluene (BHT) in chloroform:methanol 2:1 (v:v), and placed on ice. Each sample was added 150 μL of the internal standard solution. Homogenization was performed using a rotor-stator submersion blender (IKA Ultra-Turrax T25) with the sample tubes submerged in ice-water. The samples were each homogenized for 3×10 seconds with 50 second intervals, where after the homogenate is transferred to 35 mL screw-cap centrifuge tubes. The aggregate was cleaned in 5 mL chloroform:methanol 2:1 in the original glass tube, which was then transferred quantitatively to the homogenate. The homogenate was added 3 mL (0.24 times the total homogenate volume) of 0.73% (w/v) NaCl in MiliQ H2O and mixed, followed by centrifugation at 2800·g for 5 minutes at 4° C., to create a 2-phase system. The lower phase was transferred to a clean 12.5 mL centrifugation tube. The homogenate (the upper phase) was then added 3 mL chloroform:methanol 85:15 and mixed, followed by another centrifugation step. The new lower phase was then isolated and added to the first extract and dried down under nitrogen in a 40° C. water bath, followed by resolubilization in 300 μL chloroform:methanol 2:1. At this point the lipid extracts can be stored at −20° C.
The lipid extracts were fractionated on amino-propyl columns (Phenomenex Strata NH2, product number: 8B-S009-HBJ). The columns were pre-washed with 2×2 mL chloroform:methanol 23:1 (v:v) and left to dry. During fractionation the columns were not allowed to dry. The columns were primed with 2×1 mL hexane followed by application of the lipid extracts. Fraction 1 containing cholesterol esters was eluted with 3 mL Hexane into a clean tube. Fraction 2 containing TAG was eluted using 3 mL hexane:chloroform:ethylacetate 100:5:5 (v:v:v) into a clean tube. Fraction 3 containing DAG, Cholesterol and Ceramide was eluted using 3×2 mL chloroform:methanol 23:1 (v:v) into a new glass. Fraction 4 containing FFA was eluted using 5 mL 2% acetic acid in diethyl ether into a new glass. Fraction 5 containing PL was eluted using 4 mL methanol into a new glass. Fractions 1 and 2 were dried down under nitrogen at 40° C. and re-dissolved in 300 μL chloroform:methanol 95:5 and stored at −20° C. […]

Test [1] deals with liver sections from HFD-fed rats. In words: Oil-Red-O staining of frozen liver sections. Particulars: HFD rats, 2.5 μg/kg daily. The method, then:
At termination of the study of Example 2 the rat livers were embedded using snap freezing in OCT, and then sectioned using a cryomicrotome. Sections were prepared from four groups, KBP-042 in HFD rats, KBP-089 in HFD rats, control HFD rats, and a lean rat comparison.
The sections were stained using Oil-Red-O staining. […] The lipid accumulation in pair-fed KBP-089 liver exceeded KBP-089 treated rats with 66.5% (p<0.001) and was not significant different from vehicle (0.6711). Statistical test performed was one-way ANOVA with Dunnet's post test for multiple comparisons. **p<0.01, ***p<0.001.

The subject of test [2] is insulin resistant HFD rats. In words: Hyperinsulinemic-euglycemic clamp (glucose infusion rate). As for the experimental part: As liver fat is known to decrease insulin sensitivity, the effect of KBP-042 on insulin sensitivity was considered using the glucose infusion rate (GIR) in the hyperinsulinemic-euglycemic clamp. For this study ND rats were compared to insulin resistant HFD rats and 5 μg/kg KBP-042 treated HFD rats.
The results are shown in FIG. 13: A) Glucose infusion rate (GIR) at steady state during hyperinsulinemic-euglycemic clamp when blood glucose was clamped at basal levels after 21 days treatment; B) Body weight at hyperinsulinemic-euglycemic clamp experiment day after 21 days of treatment. Statistical analysis between groups was performed as a One-way ANOVA followed by Tukey's post-hoc test with the following annotations: *P<0.05, **P<0.01, ***P<0.001. Data are expressed as mean±SEM.

Where [3] appears, read: KBP-042 7.5 μg/kg/day, vs saline.

As to “AcCSNLSTCVLGKLSQELHKLQTYPRTDVGANAP-NH2 (Ac-CSNLSTCVLGKLSQELHKLQTYPRTDVGANAP-NH2; not fully specified (bridges); cysteine pairing not given here) [KBP-042, calcitonin mimetic with Cys1-Cys7 disulphide bridge]”, the “fat depots (epididymal visceral fat)” value in the test on obese rats (KBP-042 7.5 μg/kg/day, at termination) was “fats depots were reduced”. Further, in the test with obese rats (setting [3]), the body weight entry is “marked weight reduction” and the food intake result is recorded as “pronounced reduction in food intake early”. Besides, in the test on obese rats, the liver arachidonic acid result is “reduced the levels”, the “liver free fatty acids” value is “reduced” and the liver triacylglycerols result is on record as “reduced triacylglycerols”. In the test with obese rats (listed as KBP-peptide), the liver arachidonic acid entry is on record as “improvement”, the “liver free fatty acids” value is “improvement” and the liver triacylglycerols result was “improvement”. Moreover, the “decrease of HFD-induced lipid accumulation in liver compared to vehicle (Oil-Red-O)” value in test [1] is reported as 78.3%. Further, the body weight reduction in test [2] (5 μg/kg, 21 days, HFD rats) is recorded as roughly 18%. The “increase in glucose infusion rate (GIR) compared to HFD-Vehicle” value in test [2] (5 μg/kg, 21 days, p<0.001) came out at 82%. In test [2] (5 μg/kg, 21 days, p<0.05), the “increase in GIR compared to ND” value turned out to be 27%. The “body weight compared to ND rats” value in test [2] (5 μg/kg, end of study (21 days)) is reported as “not significantly different”. Also, the whole-body insulin sensitivity entry in test [2] (hyperinsulinemic-euglycemic clamp) is given as “improved”.
